For the series the following is noted: 101.33 kPa, Liquid, Vibrating tube method.

The structures appear in SMILES notation. Numbers after ± are expanded uncertainties.

As usually defined, the mass density is mass per unit of volume. Take `CCCCn1cc[n+](C)c1C.O=S(=O)([N-]S(=O)(=O)C(F)(F)F)C(F)(F)F`: the mass density is 1437.39 ± 0.29 kg/m3 (278.15 K); 1432.61 ± 0.28 kg/m3 (283.15 K); 1427.91 ± 0.28 kg/m3 (288.15 K); 1423.31 ± 0.28 kg/m3 (293.15 K); 1418.69 ± 0.28 kg/m3 (298.15 K); 1414.07 ± 0.28 kg/m3 (303.15 K). The mass density by setting is: (308.15 K) 1409.46 ± 0.28 kg/m3; (313.15 K) 1404.86 ± 0.27 kg/m3; (318.15 K) 1400.25 ± 0.27 kg/m3; (323.15 K) 1395.67 ± 0.27 kg/m3; (328.15 K) 1391.1 ± 0.27 kg/m3; (333.15 K) 1386.54 ± 0.27 kg/m3. The mass density came to 1381.98 ± 0.27 kg/m3 (338.15 K), 1377.44 ± 0.27 kg/m3 (343.15 K), 1372.92 ± 0.26 kg/m3 (348.15 K) and 1368.39 ± 0.26 kg/m3 (353.15 K).

Turning to `CCCC[P+](C)(CCCC)CCCC.O=S(=O)([N-]S(=O)(=O)C(F)(F)F)C(F)(F)F`, the mass density reads like this: (278.15 K) 1270.8 ± 1.4 kg/m3; (283.15 K) 1266.52 ± 1.4 kg/m3; (288.15 K) 1262.25 ± 1.4 kg/m3; (293.15 K) 1257.99 ± 1.4 kg/m3; (298.15 K) 1253.72 ± 1.4 kg/m3; (303.15 K) 1249.58 ± 1.4 kg/m3. The mass density (308.15 K) was determined as 1245.46 ± 1.4 kg/m3; the mass density (313.15 K) is 1241.32 ± 1.4 kg/m3; the mass density (318.15 K) stood at 1237.2 ± 1.4 kg/m3; the mass density (323.15 K) was 1233.09 ± 1.4 kg/m3; the mass density (328.15 K) is 1228.98 ± 1.4 kg/m3; the mass density (333.15 K) was found to be 1224.88 ± 1.3 kg/m3. Besides, the mass density reads like this: (338.15 K) 1220.79 ± 1.3 kg/m3; (343.15 K) 1216.71 ± 1.3 kg/m3; (348.15 K) 1212.65 ± 1.3 kg/m3; (353.15 K) 1208.59 ± 1.3 kg/m3.

For the origin of these results see the NIST ThermoML archive (doi:10.1016/j.fluid.2014.07.015).
